In US7015236B2, “N-heteroarylnicotinamide derivatives” (Sankyo Agro Company, Limited, priority 2001, dated 2006):

Assays:
[1] = tested on: green peach aphid (Myzus persicae); experiment: Insecticidal test for green peach aphid (10 ppm and 3 ppm), Test Example 2; format: in vivo; settings: same manner as Test Example 1; for mortality at 3 ppm: Chemical concentration of spray 3 ppm; for mortality at 10 ppm: Chemical concentration of spray 10 ppm
Method: (§1) Water (30 ml) was put into a beaker, and a leaf of Komatsuna (Brassica var. rapa) was placed within the beaker such that the stem was immersed in water. On the leaf of Komatsuna, five green peach aphids were released and allowed to fertilize. Two days after the releasing, imagoes were removed and the number of larvae was counted.
(§2) A surfactant Newcol NE-710F (trademark, produced by Nippon Nyukazai Co., Ltd., 2%) was dissolved in aqueous acetone (95% aqueous solution, 98%) to prepare solution 1. Next, a dispersant Gousenol GLO5-S (trademark, produced by Nippon Nyukazai Co., Ltd., 0.2% aqueous solution, 0.2%) was dissolved in water (99.8%) to prepare solution 2.
(§3) To each of the compounds (8 mg) of the present invention, the above solution 1 (0.4 ml), the above solution 2 (0.4 ml) and water (8 ml) were added. Further, the compounds of the present invention were each diluted with water so that the concentration of each compound was 100 ppm {as a spreading agent, Gramin S (trademark, produced by Sankyo Co., Ltd.) was added so as to have a concentration of 0.01%}.
(§4) The above chemical liquid (8 ml) was sprayed on the leaf of Komatsuna by use of a rotary spraying tower. The leaf of Komatsuna was put back in the beaker. Then, the beaker was placed in a thermostatic chamber of 25° C. for 16 hours in the light and for 8 hours in the dark. 5 Days after the spraying, the number of dead insects was counted to calculate the mortality (%).
Insecticidal Test for Green Peach Aphid (Myzus persicae) (10 ppm and 3 ppm)
The test was carried out in the same manner as in Test Example 1 except for setting the dilution concentration to 10 ppm and 3 ppm. Incidentally, Comparative Compound a and Comparative Compound b (Compound No. 6) listed in Table 1 of Japanese Provisional Patent Publication No. Hei 10-195072 were used as a comparison. [drawing 25]

[2] = tested on: green peach aphid (Myzus persicae); experiment: Insecticidal test for green peach aphid (100 ppm), Test Example 1; format: in vivo; settings: 120 h, 100 ppm spray on Komatsuna leaf, larvae, counted 5 days after spraying, 25° C., read-out: mortality (%)
Method: Insecticidal test for green peach aphid (Myzus persicae) (100 ppm)
as §1, §2, §3, §4

Cc1cnc(NC(=O)c2cnccc2C(F)(F)F)s1 [Comparative Compound a, reference compound] gave a mortality at 3 ppm [1] of 0% and a mortality at 10 ppm [1] of 6%.

Work on O=C(Nc1nncs1)c1cnccc1C(F)(F)F [Comparative Compound b, reference compound] yielded a mortality at 3 ppm [1] of 0% and a mortality at 10 ppm [1] of 0%.

For Cc1cc(NC(=O)c2cnccc2C(F)(F)F)on1 [Example 1, N-(3-Methyl-5-isoxazolyl)-4-(trifluoromethyl)nicotinamide], the mortality at 100 ppm [2] was at least 95%, the mortality at 3 ppm [1] was 100% and the mortality at 10 ppm [1] was 100%.

Compound O=C(Nc1ccno1)c1cnccc1C(F)(F)F [Example 4, N-(5-Isoxazolyl)-4-(trifluoromethyl)nicotinamide] has a mortality at 100 ppm [2] of at least 95%, a mortality at 3 ppm [1] of 100% and a mortality at 10 ppm [1] of 100%.

With Cc1ccc(-c2cnoc2NC(=O)c2cnccc2C(F)(F)F)cc1 [Example 54, N-[4-(4-Methylphenyl)-5-isoxazolyl]-4-(trifluoromethyl)nicotinamide] the mortality at 100 ppm [2] was at least 95%.

Work on COc1ccc(-c2cnoc2NC(=O)c2cnccc2C(F)(F)F)cc1 [Example 55, N-[4-(4-Methoxyphenyl)-5-isoxazolyl]-4-(trifluoromethyl)nicotinamide] yielded a mortality at 100 ppm [2] of at least 95%.

For O=C(Nc1oncc1-c1ccc(Cl)cc1)c1cnccc1C(F)(F)F [Example 56, N-[4-(4-Chlorophenyl)-5-isoxazolyl]-4-(trifluoromethyl)nicotinamide], the mortality at 100 ppm [2] was at least 95%.

With O=C(Nc1oncc1-c1ccc(C(F)(F)F)cc1)c1cnccc1C(F)(F)F [Example 57, N-[4-(4-Trifluoromethylphenyl)-5-isoxazolyl]-4-(trifluoromethyl)nicotinamide] the mortality at 100 ppm [2] was at least 95%.

O=C(Nc1oncc1-c1ccc(OC(F)(F)F)cc1)c1cnccc1C(F)(F)F [Example 58, N-[4-(4-Trifluoromethoxyphenyl)-5-isoxazolyl]-4-(trifluoromethyl)nicotinamide] was tested, and the mortality at 100 ppm [2] was at least 95%.

For O=C(Nc1oncc1-c1cccnc1)c1cnccc1C(F)(F)F [Example 59, N-[4-(3-Pyridyl)-5-isoxazolyl]-4-(trifluoromethyl)nicotinamide], the mortality at 100 ppm [2] was at least 95%.

CON=Cc1noc(NC(=O)c2cnccc2C(F)(F)F)c1Cl [Example 60, N-(4-Chloro-3-methoxyiminomethyl-5-isoxazolyl)-4-(trifluoromethyl)nicotinamide] gave a mortality at 100 ppm [2] of at least 95%.

Cc1noc(NC(=O)c2cnccc2C(F)(F)F)c1-c1ccccc1 [Example 61, N-(3-Methyl-4-phenyl-5-isoxazolyl)-4-(trifluoromethyl)nicotinamide] showed a mortality at 100 ppm [2] of at least 95%.

Compound O=C(Nc1oncc1C1=CCCCC1)c1cnccc1C(F)(F)F [Example 62, N-[4-(Cyclohex-1-ene-1-yl)-5-isoxazolyl]-4-(trifluoromethyl)nicotinamide] has a mortality at 100 ppm [2] of at least 95%.

Work on COCc1cnoc1NC(=O)c1cnccc1C(F)(F)F [Example 63, N-(4-Methoxymethyl-5-isoxazolyl)-4-(trifluoromethyl)nicotinamide] yielded a mortality at 100 ppm [2] of at least 95%.

O=C(Nc1oncc1-n1cccn1)c1cnccc1C(F)(F)F [Example 64, N-[4-(1H-Pyrazol-1-yl)-5-isoxazolyl]-4-(trifluoromethyl)nicotinamide] gave a mortality at 100 ppm [2] of at least 95%.

With O=C(Nc1oncc1C1CCCCC1)c1cnccc1C(F)(F)F [Example 65, N-(4-Cyclohexyl-5-isoxazolyl)-4-(trifluoromethyl)nicotinamide] the mortality at 100 ppm [2] was at least 95%.

Compound Cc1noc(NC(=O)c2cnccc2C(F)(F)F)c1F [Example 66, N-(4-Fluoro-3-methyl-5-isoxazolyl)-4-(trifluoromethyl)nicotinamide] has a mortality at 100 ppm [2] of at least 95%.
